Results: patent US11945813B2, “5-substituted 4-amino-1H-benzo[c][1,2,6]thiadiazine 2,2-dioxides and formulations and uses thereof” (Firmenich Incorporated, priority 2018, dated 2024)

Target: T1, T1R2/T1R3 taste receptor (Homo sapiens, UniProt Q8TE23)
T1 sequence (Q8TE23 20-839): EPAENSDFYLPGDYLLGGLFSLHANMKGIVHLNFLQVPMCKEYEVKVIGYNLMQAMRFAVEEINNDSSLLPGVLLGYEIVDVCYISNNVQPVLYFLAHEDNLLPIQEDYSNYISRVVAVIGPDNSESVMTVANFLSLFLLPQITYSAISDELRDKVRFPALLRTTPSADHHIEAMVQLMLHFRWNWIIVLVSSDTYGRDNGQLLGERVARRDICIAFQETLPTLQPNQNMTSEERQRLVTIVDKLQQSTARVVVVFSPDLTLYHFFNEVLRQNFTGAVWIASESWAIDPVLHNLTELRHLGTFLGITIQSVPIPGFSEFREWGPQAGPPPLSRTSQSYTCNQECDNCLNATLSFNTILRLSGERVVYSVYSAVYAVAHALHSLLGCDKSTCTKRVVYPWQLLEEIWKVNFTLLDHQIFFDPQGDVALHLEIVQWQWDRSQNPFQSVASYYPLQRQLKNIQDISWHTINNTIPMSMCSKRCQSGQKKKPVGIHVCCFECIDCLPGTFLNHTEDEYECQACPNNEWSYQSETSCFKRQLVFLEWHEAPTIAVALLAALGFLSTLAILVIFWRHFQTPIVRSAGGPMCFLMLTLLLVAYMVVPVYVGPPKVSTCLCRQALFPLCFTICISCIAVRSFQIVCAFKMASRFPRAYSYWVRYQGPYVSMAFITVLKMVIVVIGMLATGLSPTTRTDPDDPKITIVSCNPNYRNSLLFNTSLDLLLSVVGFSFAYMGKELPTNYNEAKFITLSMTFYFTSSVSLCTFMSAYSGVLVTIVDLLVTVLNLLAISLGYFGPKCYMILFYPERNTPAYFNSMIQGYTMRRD
T1 sequence (Q7RTX0 21-852 partner): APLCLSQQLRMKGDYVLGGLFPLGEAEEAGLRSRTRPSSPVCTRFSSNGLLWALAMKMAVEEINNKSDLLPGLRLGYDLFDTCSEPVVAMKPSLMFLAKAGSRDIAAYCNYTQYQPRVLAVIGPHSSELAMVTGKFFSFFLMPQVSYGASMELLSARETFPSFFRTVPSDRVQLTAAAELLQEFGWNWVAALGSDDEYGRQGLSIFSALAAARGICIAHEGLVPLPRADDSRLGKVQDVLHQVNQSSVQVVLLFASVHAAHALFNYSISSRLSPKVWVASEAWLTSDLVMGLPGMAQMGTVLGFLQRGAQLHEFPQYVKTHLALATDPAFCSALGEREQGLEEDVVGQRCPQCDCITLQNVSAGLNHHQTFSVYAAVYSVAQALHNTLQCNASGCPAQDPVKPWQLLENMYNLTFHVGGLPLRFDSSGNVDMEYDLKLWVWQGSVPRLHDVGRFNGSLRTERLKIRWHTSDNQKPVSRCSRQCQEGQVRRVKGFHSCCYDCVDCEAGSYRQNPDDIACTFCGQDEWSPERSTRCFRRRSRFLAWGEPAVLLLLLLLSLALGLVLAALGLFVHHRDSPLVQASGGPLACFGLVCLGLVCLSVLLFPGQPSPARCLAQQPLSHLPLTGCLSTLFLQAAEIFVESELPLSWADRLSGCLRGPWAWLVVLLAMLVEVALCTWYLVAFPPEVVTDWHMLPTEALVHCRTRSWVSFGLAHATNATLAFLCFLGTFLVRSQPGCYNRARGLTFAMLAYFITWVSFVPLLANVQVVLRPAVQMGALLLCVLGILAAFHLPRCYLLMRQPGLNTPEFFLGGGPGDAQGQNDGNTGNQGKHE
Assay: Receptor-based assay: sweetener EC50 alone and with test compound (enhancement ratio)
Assay type: cell-based
Details: for Fructose Enhancement EC50 Ratio: sweetener fructose; for Sucrose Enhancement EC50 Ratio: sweetener sucrose; for Sucralose Enhancement EC50 Ratio: sweetener sucralose
Method in brief: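 Sucrose, sucralose or fructose EC50 measured on human T1R2/T1R3, alone and with 3, 10 or 50 μM test compound. Enhancement is the EC50 ratio without/with compound, binned A >20, B 10-20, C >1 to <10.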

SMILES | Fructose Enhancement EC50 Ratio (10 μM test compound) | Sucrose Enhancement EC50 Ratio (3 μM test compound) | Sucrose Enhancement EC50 Ratio (10 μM test compound) | Sucrose Enhancement EC50 Ratio (50 μM test compound) | Fructose Enhancement EC50 Ratio (50 μM test compound) | Sucralose Enhancement EC50 Ratio (10 μM test compound) | Sucralose Enhancement EC50 Ratio (50 μM test compound)
NC1=NS(=O)(=O)Nc2cccc(OC[C@H]3CCCN(c4cc(C(=O)NC5CC5)ccn4)C3)c21 [Compound 607] | C (A “C” value indicates an enhancement ratio greater than 1 and less than 10) | A (An “A” value indicates an enhancement ratio of greater than 20) | B (A “B” value indicates an enhancement ratio from 10 to 20) | C (A “C” value indicates an enhancement ratio greater than 1 and less than 10) |  |  | 
NC1=NS(=O)(=O)Nc2cccc(OC[C@H]3CCCN(c4cc(C(=O)NC5CCCC5)ccn4)C3)c21 [Compound 608] | C (A “C” value indicates an enhancement ratio greater than 1 and less than 10) | C (A “C” value indicates an enhancement ratio greater than 1 and less than 10) | C (A “C” value indicates an enhancement ratio greater than 1 and less than 10) | B (A “B” value indicates an enhancement ratio from 10 to 20) | C (A “C” value indicates an enhancement ratio greater than 1 and less than 10) | A (An “A” value indicates an enhancement ratio of greater than 20) | A (An “A” value indicates an enhancement ratio of greater than 20)
NC1=NS(=O)(=O)Nc2cccc(OC[C@H]3CCCN(c4cc(C(=O)NC5CCCCC5)ccn4)C3)c21 [Compound 609] | C (A “C” value indicates an enhancement ratio greater than 1 and less than 10) | C (A “C” value indicates an enhancement ratio greater than 1 and less than 10) | C (A “C” value indicates an enhancement ratio greater than 1 and less than 10) | C (A “C” value indicates an enhancement ratio greater than 1 and less than 10) | C (A “C” value indicates an enhancement ratio greater than 1 and less than 10) | B (A “B” value indicates an enhancement ratio from 10 to 20) | B (A “B” value indicates an enhancement ratio from 10 to 20)
CN(C)C(=O)c1ccnc(N2CCC[C@H](COc3cccc4c3C(N)=NS(=O)(=O)N4)C2)c1 [Compound 610] | C (A “C” value indicates an enhancement ratio greater than 1 and less than 10) |  | C (A “C” value indicates an enhancement ratio greater than 1 and less than 10) | B (A “B” value indicates an enhancement ratio from 10 to 20) | C (A “C” value indicates an enhancement ratio greater than 1 and less than 10) | A (An “A” value indicates an enhancement ratio of greater than 20) | A (An “A” value indicates an enhancement ratio of greater than 20)
CCN(CC)C(=O)c1ccnc(N2CCC[C@H](COc3cccc4c3C(N)=NS(=O)(=O)N4)C2)c1 [Compound 611] | C (A “C” value indicates an enhancement ratio greater than 1 and less than 10) | C (A “C” value indicates an enhancement ratio greater than 1 and less than 10) | B (A “B” value indicates an enhancement ratio from 10 to 20) | C (A “C” value indicates an enhancement ratio greater than 1 and less than 10) |  | B (A “B” value indicates an enhancement ratio from 10 to 20) | A (An “A” value indicates an enhancement ratio of greater than 20)
NC1=NS(=O)(=O)Nc2cccc(OC[C@H]3CCCN(c4cc(C(=O)N5CCCC5)ccn4)C3)c21 [Compound 612] | C (A “C” value indicates an enhancement ratio greater than 1 and less than 10) | C (A “C” value indicates an enhancement ratio greater than 1 and less than 10) | C (A “C” value indicates an enhancement ratio greater than 1 and less than 10) | C (A “C” value indicates an enhancement ratio greater than 1 and less than 10) | C (A “C” value indicates an enhancement ratio greater than 1 and less than 10) | A (An “A” value indicates an enhancement ratio of greater than 20) | A (An “A” value indicates an enhancement ratio of greater than 20)
NC1=NS(=O)(=O)Nc2cccc(OC[C@H]3CCCN(c4cc(C(=O)N5CCCCC5)ccn4)C3)c21 [Compound 613] |  |  | C (A “C” value indicates an enhancement ratio greater than 1 and less than 10) | C (A “C” value indicates an enhancement ratio greater than 1 and less than 10) |  | A (An “A” value indicates an enhancement ratio of greater than 20) | A (An “A” value indicates an enhancement ratio of greater than 20)
NC1=NS(=O)(=O)Nc2cccc(OC[C@H]3CCCN(c4cc(C(=O)N5CCOCC5)ccn4)C3)c21 [Compound 614] |  | C (A “C” value indicates an enhancement ratio greater than 1 and less than 10) |  | A (An “A” value indicates an enhancement ratio of greater than 20) | C (A “C” value indicates an enhancement ratio greater than 1 and less than 10) | A (An “A” value indicates an enhancement ratio of greater than 20) | A (An “A” value indicates an enhancement ratio of greater than 20)
CN1CCN(C(=O)c2ccnc(N3CCC[C@H](COc4cccc5c4C(N)=NS(=O)(=O)N5)C3)c2)CC1 [Compound 615] |  | C (A “C” value indicates an enhancement ratio greater than 1 and less than 10) | C (A “C” value indicates an enhancement ratio greater than 1 and less than 10) | B (A “B” value indicates an enhancement ratio from 10 to 20) |  | A (An “A” value indicates an enhancement ratio of greater than 20) | A (An “A” value indicates an enhancement ratio of greater than 20)
CC(C)CNC(=O)c1ccnc(N2CCC[C@H](COc3cccc4c3C(N)=NS(=O)(=O)N4)C2)c1 [Compound 616] |  | C (A “C” value indicates an enhancement ratio greater than 1 and less than 10) | C (A “C” value indicates an enhancement ratio greater than 1 and less than 10) | C (A “C” value indicates an enhancement ratio greater than 1 and less than 10) | C (A “C” value indicates an enhancement ratio greater than 1 and less than 10) | A (An “A” value indicates an enhancement ratio of greater than 20) | A (An “A” value indicates an enhancement ratio of greater than 20)
NC1=NS(=O)(=O)Nc2cccc(OC[C@H]3CCCN(c4cc(C(=O)NCC5CC5)ccn4)C3)c21 [Compound 617] | C (A “C” value indicates an enhancement ratio greater than 1 and less than 10) | C (A “C” value indicates an enhancement ratio greater than 1 and less than 10) | C (A “C” value indicates an enhancement ratio greater than 1 and less than 10) | C (A “C” value indicates an enhancement ratio greater than 1 and less than 10) | C (A “C” value indicates an enhancement ratio greater than 1 and less than 10) | A (An “A” value indicates an enhancement ratio of greater than 20) | A (An “A” value indicates an enhancement ratio of greater than 20)
